Measurements as given in US9062066B2, “Anti-inflammatory compound having inhibitory activity against multiple tyrosine kinases and pharmaceutical composition containing same” (KOREA INSTITUTE OF SCIENCE AND TECHNOLOGY, priority 2010, dated 2015).
Where two headings read alike, the source gives them in different places.

Assays:
Lyn tyrosine kinase = Lyn tyrosine kinase (Homo sapiens (Human), UniProt P07948); experiment: in vitro Lyn tyrosine kinase inhibition; type: biochemical; conditions: for inhibition at 1 µM: read-out: % inhibition against Lyn
DDR2 tyrosine kinase = DDR2 tyrosine kinase (Homo sapiens (Human), UniProt Q16832); experiment: in vitro DDR2 tyrosine kinase inhibition (GST-fused kinase domain); type: biochemical; conditions: for inhibition at 1 µM: read-out: % inhibition against DDR2
DDR1 tyrosine kinase = DDR1 tyrosine kinase (Homo sapiens (Human), UniProt Q08345); experiment: in vitro DDR1 tyrosine kinase inhibition (GST-fused kinase domain); type: biochemical; conditions: for inhibition at 1 µM: read-out: % inhibition against DDR1
[1] = test system: TNF-α synthesis in J744A.1 macrophages; experiment: inhibition of TNF-α synthesis in LPS-activated macrophages (ELISA); type: cell-based; conditions: Macrophage, read-out: Inhibition (%) of TNF-α synthesis
Fgr tyrosine kinase = Fgr tyrosine kinase (Homo sapiens (Human), UniProt P09769); experiment: in vitro Fgr tyrosine kinase inhibition; type: biochemical; conditions: for inhibition at 1 µM: read-out: % inhibition against Fgr
[2] = test system: NO synthesis in J744A.1 macrophage; experiment: inhibition of nitric oxide (NO) synthesis in LPS-activated macrophages (Griess reagent); type: cell-based; conditions: read-out: Inhibition (%) of NO synthesis
Hck tyrosine kinase = Hck tyrosine kinase (Homo sapiens (Human), UniProt P08631); experiment: in vitro Hck tyrosine kinase inhibition; type: biochemical; conditions: for inhibition at 1 µM: read-out: % inhibition against Hck
c-Src tyrosine kinase = c-Src tyrosine kinase (Homo sapiens (Human), UniProt P12931); experiment: in vitro c-Src tyrosine kinase inhibition (32P-ATP, poly(D4Y)n substrate); type: biochemical; conditions: for inhibition at 1 µM: read-out: % inhibition against c-Src
[3] = 10 μM compound, 100 ng/ml LPS, 6 hours

Sequence of Fgr tyrosine kinase (P09769 whole entry): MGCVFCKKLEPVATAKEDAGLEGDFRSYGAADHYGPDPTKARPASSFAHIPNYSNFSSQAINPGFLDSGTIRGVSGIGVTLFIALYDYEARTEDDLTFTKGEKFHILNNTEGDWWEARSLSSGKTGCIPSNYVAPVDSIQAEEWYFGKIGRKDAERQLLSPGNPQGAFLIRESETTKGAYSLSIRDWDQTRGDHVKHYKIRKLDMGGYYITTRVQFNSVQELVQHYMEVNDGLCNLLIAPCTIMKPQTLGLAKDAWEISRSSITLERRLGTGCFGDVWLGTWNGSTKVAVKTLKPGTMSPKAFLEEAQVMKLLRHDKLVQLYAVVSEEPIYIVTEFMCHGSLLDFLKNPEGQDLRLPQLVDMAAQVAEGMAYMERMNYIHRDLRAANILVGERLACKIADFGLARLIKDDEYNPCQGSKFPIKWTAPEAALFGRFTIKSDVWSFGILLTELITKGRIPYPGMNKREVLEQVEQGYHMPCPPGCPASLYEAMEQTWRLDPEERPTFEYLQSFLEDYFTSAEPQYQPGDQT
Sequence of c-Src tyrosine kinase (P12931 whole entry, looked up): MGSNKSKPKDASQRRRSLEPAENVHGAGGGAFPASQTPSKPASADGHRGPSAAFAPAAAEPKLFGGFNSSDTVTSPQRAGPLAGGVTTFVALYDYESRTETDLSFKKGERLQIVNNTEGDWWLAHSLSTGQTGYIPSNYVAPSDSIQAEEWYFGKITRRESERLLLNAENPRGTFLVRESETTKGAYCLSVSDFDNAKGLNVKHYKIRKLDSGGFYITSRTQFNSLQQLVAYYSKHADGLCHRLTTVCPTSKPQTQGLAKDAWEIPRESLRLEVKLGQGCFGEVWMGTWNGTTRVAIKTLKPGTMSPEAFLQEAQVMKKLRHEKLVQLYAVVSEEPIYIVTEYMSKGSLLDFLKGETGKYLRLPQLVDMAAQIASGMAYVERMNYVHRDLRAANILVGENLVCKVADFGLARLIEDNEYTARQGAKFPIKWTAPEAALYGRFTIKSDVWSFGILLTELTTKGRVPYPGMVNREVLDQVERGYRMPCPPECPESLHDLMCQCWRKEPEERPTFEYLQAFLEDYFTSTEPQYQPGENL
Sequence of Lyn tyrosine kinase (P07948 whole entry, the tested form may be a part): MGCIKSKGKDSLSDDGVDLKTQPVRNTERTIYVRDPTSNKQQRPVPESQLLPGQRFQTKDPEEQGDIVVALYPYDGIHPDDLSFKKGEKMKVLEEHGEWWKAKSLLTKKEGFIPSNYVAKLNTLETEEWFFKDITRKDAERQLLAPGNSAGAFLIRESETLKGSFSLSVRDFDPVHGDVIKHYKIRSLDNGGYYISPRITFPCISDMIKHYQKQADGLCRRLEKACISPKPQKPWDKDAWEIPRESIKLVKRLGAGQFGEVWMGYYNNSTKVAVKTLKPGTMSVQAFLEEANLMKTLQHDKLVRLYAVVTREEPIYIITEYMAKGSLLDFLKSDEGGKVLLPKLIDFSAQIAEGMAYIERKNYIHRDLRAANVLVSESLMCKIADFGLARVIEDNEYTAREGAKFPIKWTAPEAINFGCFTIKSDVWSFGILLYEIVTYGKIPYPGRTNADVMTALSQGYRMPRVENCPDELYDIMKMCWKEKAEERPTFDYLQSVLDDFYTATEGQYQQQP
Sequence of DDR2 tyrosine kinase (Q16832 563-849): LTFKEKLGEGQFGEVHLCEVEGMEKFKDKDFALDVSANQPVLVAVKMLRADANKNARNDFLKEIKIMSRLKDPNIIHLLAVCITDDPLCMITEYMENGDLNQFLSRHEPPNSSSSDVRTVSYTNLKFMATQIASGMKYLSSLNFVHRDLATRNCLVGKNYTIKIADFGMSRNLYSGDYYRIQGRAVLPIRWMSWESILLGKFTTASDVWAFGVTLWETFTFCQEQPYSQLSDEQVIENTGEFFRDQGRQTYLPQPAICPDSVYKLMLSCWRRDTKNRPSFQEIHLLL
Sequence of Hck tyrosine kinase (P08631 whole entry): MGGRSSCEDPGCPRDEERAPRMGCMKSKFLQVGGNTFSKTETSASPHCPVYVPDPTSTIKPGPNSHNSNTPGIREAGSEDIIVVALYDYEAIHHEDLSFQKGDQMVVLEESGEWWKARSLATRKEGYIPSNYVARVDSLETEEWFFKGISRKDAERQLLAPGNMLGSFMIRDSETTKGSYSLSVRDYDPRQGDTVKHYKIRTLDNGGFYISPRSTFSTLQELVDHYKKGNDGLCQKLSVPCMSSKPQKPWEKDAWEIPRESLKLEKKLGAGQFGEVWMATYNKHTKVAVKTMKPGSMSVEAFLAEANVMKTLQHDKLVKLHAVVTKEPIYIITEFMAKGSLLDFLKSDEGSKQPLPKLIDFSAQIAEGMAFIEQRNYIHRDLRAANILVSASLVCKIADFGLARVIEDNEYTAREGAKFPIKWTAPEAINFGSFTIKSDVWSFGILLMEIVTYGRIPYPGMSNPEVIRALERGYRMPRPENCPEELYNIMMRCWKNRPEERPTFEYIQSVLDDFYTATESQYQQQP
Sequence of DDR1 tyrosine kinase (Q08345 610-905): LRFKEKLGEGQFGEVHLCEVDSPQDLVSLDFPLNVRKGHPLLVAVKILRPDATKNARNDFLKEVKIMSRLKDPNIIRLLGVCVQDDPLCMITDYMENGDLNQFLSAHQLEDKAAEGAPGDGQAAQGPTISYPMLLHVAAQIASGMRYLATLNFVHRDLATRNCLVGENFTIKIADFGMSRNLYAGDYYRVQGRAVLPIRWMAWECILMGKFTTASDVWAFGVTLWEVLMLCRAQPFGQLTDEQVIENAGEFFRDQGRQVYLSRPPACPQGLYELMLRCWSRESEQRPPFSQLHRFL

| Compound | inhibition at 1 µM (Lyn tyrosine kinase; 1 uM compound) [%] | inhibition at 1 µM (DDR2 tyrosine kinase; 1 uM compound) [%] | inhibition at 1 µM (DDR1 tyrosine kinase; 1 uM compound) [%] | inhibition at 1 µM (Fgr tyrosine kinase; 1 uM compound) [%] | inhibition at 1 µM (Hck tyrosine kinase; 1 uM compound) [%] | inhibition at 1 µM (c-Src tyrosine kinase; 1 uM compound) [%] | inhibition at 10 µM [1, 3] [%] | inhibition at 10 µM ([2]; 10 μM compound, LPS, 24 hours) [%] | also measured |
| --- | --- | --- | --- | --- | --- | --- | --- | --- | --- |
| Oc1cccc(Nc2ncnc3cc(-c4ccco4)sc23)c1 [LCB 03-0038, 3-(6-(furan-2-yl)thieno[3,2-d]pyrimidin-4-ylamino)phenol] | > 60 | > 70 | > 70 | > 50 | > 50 | > 60 | 85 | 88 |  |
| Oc1cccc(Nc2ncnc3cc(-c4cc(CN5CCCC5)cs4)sc23)c1 [LCB 03-0101, 3-(6-(4-(pyrrolidin-1-ylmethyl)thiophene-2-yl)thieno[3,2-d]pyrimidin-4-ylamino)phenol] |  |  |  |  |  |  |  |  | inhibition at 1 µM (Lyn tyrosine kinase): > 70%; inhibition at 1 µM (DDR2 tyrosine kinase): > 70%; inhibition at 1 µM (DDR1 tyrosine kinase): > 70%; inhibition at 10 µM ([1]; 6 h): 71%; inhibition at 1 µM (Fgr tyrosine kinase): > 70%; inhibition at 10 µM ([2]; 24 h): 76%; inhibition at 1 µM (Hck tyrosine kinase): > 70%; inhibition at 1 µM (c-Src tyrosine kinase): > 70% |
| COc1cccc(Nc2ncnc3cc(-c4cccs4)sc23)c1 [LCB 03-0030, (3-Methoxyphenyl)-(6-thiophene-2-yl-thieno[3,2-d]pyrimidin-4-yl)-amine] |  |  |  |  |  |  | 80 | 96 | % inhibition against Lyn (Lyn tyrosine kinase; 1 uM compound): >40%; % inhibition against DDR2 (DDR2 tyrosine kinase; 1 uM compound): >70%; % inhibition against DDR1 (DDR1 tyrosine kinase; 1 uM compound): >70%; % inhibition against Fgr (Fgr tyrosine kinase; 1 uM compound): >30%; % inhibition against Hck (Hck tyrosine kinase; 1 uM compound): >30%; % inhibition against c-Src (c-Src tyrosine kinase; 1 uM compound): >40% |

Further lines, with some results ahead:

| inhibition at 1 µM (Lyn tyrosine kinase; 1 uM compound) [%] | inhibition at 1 µM (DDR2 tyrosine kinase; 1 uM compound) [%] | inhibition at 1 µM (DDR1 tyrosine kinase; 1 uM compound) [%] | inhibition at 1 µM (Fgr tyrosine kinase; 1 uM compound) [%] | inhibition at 1 µM (Hck tyrosine kinase; 1 uM compound) [%] | inhibition at 1 µM (c-Src tyrosine kinase; 1 uM compound) [%] | Compound | inhibition at 10 µM [1, 3] [%] | inhibition at 10 µM ([2]; 10 μM compound, LPS, 24 hours) [%] | also measured |
| --- | --- | --- | --- | --- | --- | --- | --- | --- | --- |
| > 50 | > 80 | > 80 | > 60 | > 60 | > 60 | CCN(CC)C(=O)c1cccc(-c2cc3ncnc(Nc4cccc(O)c4)c3s2)c1 [LCB 03-0054, N,N-diethyl-3-(4-(3-hydroxyphenylamino)thieno[3,2-d]pyrimidin-6-yl)benzamide] | 77 | 92 |  |
| > 40 | > 80 | > 80 | > 40 | > 40 | > 40 | CC1CCN(Cc2ccc(-c3cc4ncnc(Nc5cccc(O)c5)c4s3)cc2)CC1 [LCB 03-0058, 3-(6-(4-((4-methylpiperidin-1-yl)methyl)phenyl)thieno[3,2-d]pyrimidin-4-ylamino)phenol] | 58 | 80 |  |
| > 40 | > 80 | > 80 | > 40 | > 40 | > 40 | O=C(Cc1ccc(-c2cc3ncnc(Nc4cccc(O)c4)c3s2)cc1)N1CCCC1 [LCB 03-0049, 2-(4-(4-(3-hydroxyphenylamino)thieno[3,2-d]pyrimidin-6-yl)phenyl)-1-(pyrrolidin-1-yl)ethanone] | 57 | 88 |  |
| > 50 | > 80 | > 80 | > 50 | > 50 | > 50 | OCC1CCCN1Cc1ccc(-c2cc3ncnc(Nc4cccc(O)c4)c3s2)cc1 (stereo not shown) [LCB 03-0057, 3-(6-(4-((2-(hydroxymethyl)pyrrolidin-1-yl)methyl)phenyl)thieno[3,2-d]pyrimidin-4-ylamino)phenol] | 64 | 87 |  |
| > 50 | > 70 | > 70 | > 50 | > 50 | > 50 | Oc1cccc(Nc2ncnc3cc(-c4ccoc4)sc23)c1 [LCB 03-0039, 3-(6-(furan-3-yl)thieno[3,2-d]pyrimidin-4-ylamino)phenol] | 80 | 80 |  |
